From US20210055311A1, “SCREENING METHOD FOR ESTROGENIC AND ANTI-ESTROGENIC ACTIVITY” (BUNDESINSTITUT FÜR RISIKOBEWERTUNG, priority 2018, published 2021)

Columns and labels:
[1] = system: MCF7/vBOS cells (DSM ACC3321); experiment: Prevention of fulvestrant-induced discontinuous adherens junctions by estrogenic compounds; format: cell-based, human; conditions: for prevention of the formation of discontinuous adherens junctions: along with 10^−8 M fulvestrant; for minimal concentration preventing the fulvestrant-induced phenotype: co-treatment with 10^−8 M fulvestrant, 48 h
Procedure: Briefly, MCF7/vBOS cells were grown on glass coverslips in multi-well tissue culture plates (TPP) for 24 h and then treated for 48 h with 0.1% EtOH (solvent control), the anti-estrogen fulvestrant in the fixed concentration of 10^−8 M and different concentrations (10^−10 M, 10^−9 M, 10^−8 M, 10^−7 M) of the ERα agonist 17β-estradiol. The solvent control was used as a positive control and fulvestrant at a concentration of 10^−8 M without 17β-estradiol addition was used as a negative control. Sample preparation and immunofluorescence microscopy was performed as described in example 2 above. After 48 hours the fraction of cells displaying discontinuous adherens junctions was determined by CellProfiler/CellProfer-analyst software (see example 7).
The same protocols as in example 2 were used with the following deviations: • Bisphenol A: Cells were grown for 24 h and then treated for 48 h with 10^−8 M fulvestrant and 10^−5 or 10^−4 M bisphenol A, respectively, diluted in DSMO. • Nonylphenol: Cells were grown for 24 h and then treated for 48 h with 10^−8 M fulvestrant and 10^−5 or 10^−4 nonylphenol, respectively, diluted in ethanol.
Briefly, cell culture, sample preparation and immunofluorescence microscopy was performed as described in example 2 (ERα signalling inhibition (fulvestrant titration)) and example 5 (ERα signalling restoration (fulvestrant at 10^−8 M in combination with 17β-estradiol titration))..
Subsequently, quantitative image analysis was performed using a pipeline that builds on the CellProfiler software (Carpenter et al., Genome Biol., 2006; 7(10):R100.) for segmentation and extraction of cellular parameters, and on the CellProfiler Analyst software (Jones et al., BMC Bioinformatics, 2008 Nov. 15; 9:482) for parameter-based classification of cells. In the segmentation process, primary objects (nuclei) were identified from DAPI staining by global thresholding using Otsu's method. Next, primary objects served as seeding points for identification of secondary objects (cell membranes) at a defined distance. Finally, tertiary objects (cytoplasm) were defined by subtracting primary from secondary objects. The resulting object masks were then applied to extract cellular parameters including area, shape, distribution and variation of pixel intensities, and mean intensity from the corresponding greyscale images using the CellProfiler MeasureObjectSizeShape, MeasureObjectRadialDistribution, MeasureTexture, and MeasureObjectIntensity modules, and stored in a database file. This database file was then imported into the Classifier module of the CellProfiler Analyst software for supervised training with a subset of cells, and subsequent parameter-based automatic classification of all cells within the entire image dataset. For immunofluorescence images, supervised training based on cell membrane features (E-Cad channel) was conducted with two classes representing continuous adherens junctions (Continuous AJs') and discontinuous adherens junctions (Discontinuous AJs′) (about 30 cells for each class). After the supervised training process had been completed, the entire image dataset from a specific experiment was evaluated and all identified cells were automatically classified into corresponding classes according to their individual parameters. The fraction of cells representing ‘Continuous AJs’ and ‘Discontinuous AJs’ classes were finally graphically represented in stacked bar plots.

[2] = system: MCF7/vBOS cells (DSM ACC3321); experiment: Formation of discontinuous basolateral adherens junctions upon anti-estrogen exposure (E-Cadherin immunofluorescence); format: cell-based, human; conditions: for Concentration (M) suitable for manifestation of the discontinuous basolateral adherens junctions phenotype / Culture time (h) typically required for formation of discontinuous basolateral adherens junctions: cell as deposited under DSM ACC3321; for formation of discontinuous adherens junctions (E-Cadherin staining): concentration and incubation time per compound as in FIGS. 1-3
Text: The time usually required for formation of discontinuous basolateral adherens junctions will depend on the estrogen receptor binding affinity and concentration of the anti-estrogen used on the one hand and the cell used on the other hand, but a person skilled in the art will be readily capable of determining the appropriate time spans and concentration for a given anti-estrogen and cell. For example, if the cell is a cell as deposited under accession number DSM ACC3321, suitable concentration ranges and culture times for manifestation of the discontinuous basolateral adherens junctions phenotype in presence of fulvestrant, tamoxifen, ZK 164015, MPP dihydrochloride, and (Z)-4-hydroxytamoxifen, without being limited thereto, are:
MCF7/vBOS cells were grown on glass coverslips in multi-well tissue culture plates (TPP) for 24 h and then treated for at least 48 h with 0.1% EtOH (solvent control) and different concentrations (10^−11 M, 10^−10 M, 10^−9 M, 10^−8 M, 10^−7 M) of the ERα antagonist fulvestrant (Sigma-Aldrich, CAS-No. 129453-61-8). During experiments, medium was exchanged on a daily basis. All experiments were performed at 37° C. with 5% CO2 in reduced-serum medium (phenol red-free DMEM (Gibco), 5% FBS (Biochrom, S 0615, LOT1353 W), 1% glutamine, 100 μg/ml streptomycin/100 U/ml penicillin (Biochrom)).
After treatment with fulvestrant the adherens junction morphology of the cells was analysed by means of immunofluorescence microscopy. Briefly, cells were fixed with 3.7% formaldehyde in PBS for 15 min, permeabilized with 0.2% Triton X-100 in PBS for 30 min, and blocked with 5% FBS in PBS for 60 min (all steps at room temperature). Incubation with primary and secondary antibodies in PBS containing 1.5% BSA was carried out over night at 4° C. and for 1 h at room temperature, respectively. The following antibodies/dyes were used: anti-E-Cadherin (H-108, Santa Cruz); DAPI (Roche); secondary antibody conjugated to Cy3 (alternatives are, e.g.: Cy2, Alexa Fluor 488/555/647; all Invitrogen). The samples were then mounted in Dako fluorescence mounting medium (Dako) or VectaShield (Vector Labs). All images were acquired with an Axio Observer.Z1 widefield microscope equipped with an Apotome.2 device for optical sectioning using structured illumination (Zeiss). After 48 hours the fraction of cells displaying discontinuous adherens junctions was determined by CellProfiler/CellProfer-analyst software (see example 7).
In view of the results obtained with MCF7/vBOS cells upon exposure to fulvestrant the inventors speculated that a similar phenotype might be obtainable with other ERα antagonist as well. To test this hypothesis, the inventors used the ERα antagonists tamoxifen (Sigma-Aldrich, CAS-No. 10540-29-1), MPP dihydrochloride (Sigma-Aldrich, CAS-No. 911295-24-4), ZK164015 (Tocris, CAS-No. 177583-70-9), and (Z)-4-hydroxytamoxifen (Tocris, CAS-No. 68047-06-3). The same protocols as in example 2 were used with the following deviations: • Tamoxifen: Cells were grown for 24 h and then treated for 144 h with 10^−8 and 10^−6 M tamoxifen. • MPP dihydrochloride: Cells were grown for 24 h and then treated for 144 h with 10^−8 and 10^−6 M MPP dihydrochloride. • ZK164015: Cells were grown for 24 h and then treated for 48 h with 10^−9 and 10^−7 M ZK164015. • (Z)-4-hydroxytamoxifen: Cells were grown for 24 h and then treated for 72 h with 10^−9 and 10^−8 M (Z)-4-hydroxytamoxifen.
Subsequently, quantitative image analysis was performed using a pipeline that builds on the CellProfiler software (Carpenter et al., Genome Biol., 2006; 7(10):R100.) for segmentation and extraction of cellular parameters, and on the CellProfiler Analyst software (Jones et al., BMC Bioinformatics, 2008 Nov. 15; 9:482) for parameter-based classification of cells. In the segmentation process, primary objects (nuclei) were identified from DAPI staining by global thresholding using Otsu's method. […]

Molecule	fraction of cells with continuous adherens junctions (CellProfiler quantification) ([1]; 10^−8 M fulvestrant plus different concentrations, 48 hours)	prevention of the formation of discontinuous adherens junctions [1]	minimal concentration preventing the fulvestrant-induced phenotype [1]	Concentration (M) suitable for manifestation of the discontinuous basolateral adherens junctions phenotype [2]	Culture time (h) typically required for formation of discontinuous basolateral adherens junctions [2] [h]	formation of discontinuous adherens junctions (E-Cadherin staining) [2]
C[C@]12CC[C@@H]3c4ccc(O)cc4CC[C@H]3[C@@H]1CC[C@@H]2O [17β-estradiol]	restores the fraction of cells with continuous adherens junctions	prevention of the formation of discontinuous adherens junctions	10^−9 M			
CC/C(=C(\c1ccc(O)cc1)c1ccc(OCCN(C)C)cc1)c1ccccc1 [(Z)-4-hydroxytamoxifen]				10^−9-10^−7 M	48 to 144	Discontinuous adherens junctions became apparent
Cc1c(-c2ccc(O)cc2)nn(-c2ccc(O)cc2)c1-c1ccc(OCCN2CCCCC2)cc1.Cl.Cl [MPP dihydrochloride]				10^−6-10^−5 M	30 to 168	Discontinuous adherens junctions became apparent
CC/C(=C(\c1ccccc1)c1ccc(OCCN(C)C)cc1)c1ccccc1 [Tamoxifen]				10^−6-10^−5 M	30 to 168	Discontinuous adherens junctions became apparent
CCCCCS(=O)(=O)CCCCCCCCCCn1c(-c2ccc(O)cc2)c(C)c2cc(O)ccc21 [ZK 164015]				10^−7-10^−5 M	24 to 96	Discontinuous adherens junctions became apparent
CC(C)(c1ccc(O)cc1)c1ccc(O)cc1 [bisphenol A]		prevention of the formation of discontinuous adherens junctions	10^−5 M			
nonylphenol		prevention of the formation of discontinuous adherens junctions	10^−5 M			
